Test results as given in patent US3966735A, “1-3-(4-Fluorobenzoyl)propyl-4-substituted phenoxy ethyl piperazine” (Kali-Chemie Aktiengesellschaft, priority 1973, dated 1976).

How the values were obtained:
[1] = test system: female mice of the NMRI strain; assay: Squirrel-cage test for determining effect of drugs on motility (Test 4); format: in vivo, mouse (female mice of the NMRI strain); details: peroral, 20 mice, revolutions over 5 hours, compared with peroral chlordiazepoxide
Procedure: 4. Squirrel-cage test for determining effect of drugs on motility: The test substance is administered perorally to female mice of the NMRI strain that had previously not been exercised in a squirrel cage. Twenty mice are placed into the revolving cylinder of the squirrel cage and they are allowed to run freely therein. The number of revolutions through which the cylinder in the squirrel cage spins every 15 minutes is noted during the course of an extended period of 5 hours, when the test is discontinued. The average of the number of revolutions per minute is calculated and represented on a graph. These values are then compared with […] and the results are reported in milligrams per kilogram of body weight.

[2] = Acute toxicity, single oral administration (Test 1); details: mouse, in vivo, fasting white mice, NMRI strain, Litchfield and Wilcoxon
Procedure: 1. Acute toxicity: The acute toxicity is determined by a single oral administration to fasting white mice of the NMRI strain. The […] lethal dose (LD50) is computed in accordance with the method described by J.T. Litchfield and F. Wilcoxon in Journal of Pharmacology and Experimental Therapeutics, vol. 96, page 99 (1949).

[3] = test system: female mice of the NMRI strain; assay: Test of sedative effectiveness (Test 3); format: in vivo, mouse (female mice of the NMRI strain); details: Mus musculus, ip, 0.5 h; intraperitoneal, on awakening from 100 mg/kg hexobarbital i.p.; dose required to induce sleep for 30 minutes; read-out: Effective sedative dose ED50 (Test 3)
Procedure: 3. Test of sedative effectiveness: In this test is measured the period of narcosis that is induced by the test substance following a period of narcosis induced by hexobarbital. A dose of 100 milligrams of hexobarbital per kilogram of body weight is administered intraperitoneally to female mice of the NMRI strain. As soon as the mouse revives or awakens from the narcosis induced by the dose of hexobarbital, a measured dose of the test substance is administered intraperitoneally. The period between the administration of the test substance and the second revival of the mouse is then noted. From the length of this second period is calculated the dose of the test substance that was required to induce sleep for a period of 30 minutes and this dose is referred to as the effective sedative dose (ED50).

mouse = assay: Test of prolongation of narcosis induced by hexobarbital (Test 2); format: in vivo; details: peroral, 30 minutes before 65 mg/kg hexobarbital i.v., dose required to double the sleeping time, read-out: Narcotic prolongation effect (Test 2)
Procedure: 2. Test of prolongation of narcosis induced by hexobarbital: In accordance with this test, the test substance is administered perorally to a mouse. After an interval of 30 minutes, a dose of 65 milligrams of hexobarbital per kilogram of body weight is administered intravenously. The result is reported as the dose of the test compound that was required to double the period of sleeping time that was induced by the hexobarbital.

| SMILES | Squirrel cage motility test versus 21.5 mg/kg chlordiazepoxide (Test 4) [1] [mg/kg] | LD50 [2] [mg/kg] | ED50 [3] [mg/kg] | ED (2-fold sleeping time) (mouse) [mg/kg] |
| --- | --- | --- | --- | --- |
| Cl.Cl.N#Cc1ccc(OCCN2CCN(CCCC(=O)c3ccc(F)cc3)CC2)cc1 [Substance 1, 1-[3-(4-Fluorobenzoyl)propyl]-4-[2-(4-cyanophenoxy)ethyl]-piperazine dihydrochloride] | 0.7 | 215 | 21.5 | 10 |
| Cl.Cl.O=C(CCCN1CCN(CCSc2ccc(Cl)cc2)CC1)c1ccc(F)cc1 [Substance 2, 1-[3-(4-Fluorobenzoyl)propyl]-4-[2-(4-chlorophenylthio)-ethyl]piperazine dihydrochloride] | > 10 | > 1470 | 30 | 20 |
| CCC(=O)c1ccc(OCCN2CCN(CCCC(=O)c3ccc(F)cc3)CC2)c(Cl)c1.Cl.Cl [Substance 3, 1-[3-(4-Fluorobenzoyl)propyl]-4-[2-(4-propionyl-2-chlorophenoxy)ethyl]piperazine dihydrochloride] | 1.5 | 860 | 14 | 20 |
| Cc1ccc(OCCN2CCN(CCCC(=O)c3ccc(F)cc3)CC2)c([N+](=O)[O-])c1.Cl.Cl [Substance 4, 1-[3-(4-Fluorobenzoyl)propyl]-4-[2-(4-methyl-2-nitrophenoxy)ethyl]piperazine dihydrochloride] | – | 1720 | 46 | 20 |
| COc1cc(C)ccc1OCCN1CCN(CCCC(=O)c2ccc(F)cc2)CC1.Cl.Cl [Substance 5, 1-[3-(4-Fluorobenzoyl)propyl]-4-[2-(4-methyl-2-methoxyphenoxy)ethyl]piperazine dihydrochloride] | 3.2 | 458 | 7 | 46 |
| Cc1ccc([N+](=O)[O-])cc1OCCN1CCN(CCCC(=O)c2ccc(F)cc2)CC1.Cl.Cl [Substance 6, 1-[3-(4-Fluorobenzoyl)propyl]-4-[2-(5-nitro-2-methylphenoxy)ethyl]piperazine dihydrochloride] | – | > 1470 | 23 | 32 |
| CS(=O)(=O)c1ccc(OCCN2CCN(CCCC(=O)c3ccc(F)cc3)CC2)cc1.Cl.Cl [Substance 7, 1-[3-(4-Fluorobenzoyl)propyl]-4-[2-(4-methylsulfonylphenoxy)ethyl]piperazine dihydrochloride] | 6.8 | 825 | 30 | 46 |
| Cl.Cl.O=C(CCCN1CCN(CCSc2ccc([N+](=O)[O-])cc2)CC1)c1ccc(F)cc1 [Substance 8, 1-[3-(4-Fluorobenzoyl)propyl]-4-[2-(4-nitrophenylthio)-ethyl]piperazine dihydrochloride] | 6.8 | 499 | 30 | 6 |
